Data published in paper PMC6797648 (Targeted Oncology, 2019).
pIC50, pKd: −log10 of the molar value. “And” between values parts separate entries of the source, which are not always exact repeats. Equal values may be shown once. Values belong to the compound of their own block, whether it stands above or below them.

What was measured:
PIK3CD/PIK3R1 = PIK3CD/PIK3R1 (Homo sapiens, UniProt O00329); experiment: Purified enzyme-binding kinetics
[1] = Plasma and tissue distribution in A20 syngeneic model; type: in vivo, BALB/c mice; conditions: for Tumor concentration, times higher than plasma concentration: 4 h after the last dose
[2] = Blood to plasma ratio in human whole blood; type: in vitro ADME; conditions: from the human B:P of 1.4
[3] = Single-dose oral and IV pharmacokinetics in beagle dogs; type: in vivo, beagle dog
[4] = Allometric scaling of VSS to a hypothetical 60-kg human
[5] = healthy volunteers, oral; cited from earlier work
[6] = tested on: peripheral blood basophils; conditions: healthy volunteers, oral administration, CD63 expression following ex vivo stimulation; cited from earlier work
PI3Kδ = conditions: read-out: IC50, inhibition of PI3Kδ in cellular assays; cited from earlier work
purified PI3Kδ enzyme = conditions: read-out: IC50, inhibition of purified PI3Kδ enzyme; cited from earlier work
Caco-2 cell monolayer = experiment: Caco-2 permeability and percent recovery
[7] = Caco-2 permeability and percent recovery; conditions: human, Caco-2, pH 7.4
[8] = 50 mg/kg twice daily for 4 days
[9] = ME-401 versus idelalisib, in vitro
[10] = 1 µM, Caco-2, apical to basolateral
[11] = 1 µM, Caco-2, basolateral to apical

Sequence of PIK3CD/PIK3R1 (O00329 whole entry): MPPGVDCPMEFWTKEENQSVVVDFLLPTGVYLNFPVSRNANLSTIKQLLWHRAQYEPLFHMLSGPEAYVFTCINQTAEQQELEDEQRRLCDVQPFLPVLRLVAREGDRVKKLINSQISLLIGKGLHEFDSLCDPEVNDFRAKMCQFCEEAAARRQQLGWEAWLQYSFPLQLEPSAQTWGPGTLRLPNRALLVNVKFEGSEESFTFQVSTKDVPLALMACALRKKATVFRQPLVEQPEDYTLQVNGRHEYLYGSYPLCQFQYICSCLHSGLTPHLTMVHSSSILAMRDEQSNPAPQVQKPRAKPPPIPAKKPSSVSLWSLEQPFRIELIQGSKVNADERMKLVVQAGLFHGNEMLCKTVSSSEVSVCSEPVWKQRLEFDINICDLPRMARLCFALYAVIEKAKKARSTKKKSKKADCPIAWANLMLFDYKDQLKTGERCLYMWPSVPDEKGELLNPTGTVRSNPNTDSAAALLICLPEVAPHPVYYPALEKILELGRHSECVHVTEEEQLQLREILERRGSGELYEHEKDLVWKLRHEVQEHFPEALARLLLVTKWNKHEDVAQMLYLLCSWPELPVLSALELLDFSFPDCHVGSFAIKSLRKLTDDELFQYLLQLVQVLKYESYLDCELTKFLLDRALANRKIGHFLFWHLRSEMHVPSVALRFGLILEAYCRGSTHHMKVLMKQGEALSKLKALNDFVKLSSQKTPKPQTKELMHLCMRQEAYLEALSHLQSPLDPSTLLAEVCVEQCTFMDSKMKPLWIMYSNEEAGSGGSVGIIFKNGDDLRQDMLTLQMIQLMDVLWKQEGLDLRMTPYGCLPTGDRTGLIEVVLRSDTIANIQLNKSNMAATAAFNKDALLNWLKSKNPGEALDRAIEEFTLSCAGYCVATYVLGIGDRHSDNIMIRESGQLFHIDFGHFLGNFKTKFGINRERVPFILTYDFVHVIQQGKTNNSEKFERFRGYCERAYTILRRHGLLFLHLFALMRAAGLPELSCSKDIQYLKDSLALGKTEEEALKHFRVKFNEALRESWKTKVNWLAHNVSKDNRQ
Sequence of PIK3CD/PIK3R1 (P27986 whole entry partner): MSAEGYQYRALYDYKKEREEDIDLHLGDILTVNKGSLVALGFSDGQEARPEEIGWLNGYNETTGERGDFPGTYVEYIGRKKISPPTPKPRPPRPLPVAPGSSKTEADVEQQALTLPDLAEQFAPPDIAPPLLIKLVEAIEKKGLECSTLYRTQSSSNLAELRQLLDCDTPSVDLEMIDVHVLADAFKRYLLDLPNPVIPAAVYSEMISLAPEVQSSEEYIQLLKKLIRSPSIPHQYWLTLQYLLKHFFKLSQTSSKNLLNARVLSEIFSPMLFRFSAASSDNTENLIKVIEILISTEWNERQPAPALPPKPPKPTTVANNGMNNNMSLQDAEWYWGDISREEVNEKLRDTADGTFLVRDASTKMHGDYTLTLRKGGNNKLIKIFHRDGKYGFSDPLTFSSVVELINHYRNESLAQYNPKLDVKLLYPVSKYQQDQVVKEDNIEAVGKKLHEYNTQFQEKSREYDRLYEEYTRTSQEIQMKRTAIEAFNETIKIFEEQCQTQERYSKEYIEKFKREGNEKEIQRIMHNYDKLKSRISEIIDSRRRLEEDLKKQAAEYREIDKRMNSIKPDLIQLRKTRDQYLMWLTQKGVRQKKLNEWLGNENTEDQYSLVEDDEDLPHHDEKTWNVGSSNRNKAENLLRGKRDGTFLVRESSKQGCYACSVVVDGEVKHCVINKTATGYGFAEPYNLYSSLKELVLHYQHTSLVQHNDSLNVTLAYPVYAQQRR

Dissociation rate, times higher than ME-401 (PIK3CD/PIK3R1; idelalisib versus ME-401): ~ 100 times | Tumor concentration, times higher than plasma concentration [1, 8]: approximately three times higher
SMILES: CC[C@H](Nc1ncnc2[nH]cnc12)c1nc2cccc(F)c2c(=O)n1-c1ccccc1 [Idelalisib, idelalisib, reference compound]

Drug in the blood that distributes into blood cells at equilibrium [2]: approximately 60% | Residence time (PIK3CD/PIK3R1; 22 °C): ~5 h and 5.3 h | kd dissociation rate constant (PIK3CD/PIK3R1; 22 °C, 1:1 binding model): 5.2e-05 s⁻¹ | Binds more tightly than idelalisib (PIK3CD/PIK3R1; [9]): ~ 37 times | Remains on-target longer than idelalisib (PIK3CD/PIK3R1; [9]): ~ 138 times | pKd (PIK3CD/PIK3R1; read-out: KD equilibrium dissociation constant, 22 °C, 1:1 binding model): 10.52 | AUCinf ([3]; dogs, 2 mg/kg IV): 1247 ng·h/mL | Bioavailability ([3]; dogs, oral 2 mg/kg versus IV 2 mg/kg): 79% | AUCinf ([3]; fasted dogs, 2 mg/kg orally): 980 ng·h/mL | Extrapolated human VSS, times higher than blood volume [4]: approximately 100 times | Extrapolated human VSS, times higher than whole body volume [4]: approximately 15 times | Extrapolated human VSS, times larger than that reported for idelalisib [4]: ~ 28 times | Tumor concentration, times higher than plasma concentration [1, 8]: approximately 20 times | Brain tissue concentration as percent of plasma values ([1]; 75 mg/kg twice daily for 4 days, 4 and 24 h after the last dose): approximately 30% | Tumor concentration, times higher than plasma concentration ([1]; 75 mg/kg twice daily for 4 days): approximately 30 times | Decrease of tumor levels at 24 h compared with levels at 4 h ([1]; oral administration, A20 syngeneic mouse model): 30–50% | Retained in the monolayer (Caco-2 cell monolayer; 1 µM, Caco-2): ~ 50% | Recovery, AB, cell lysate included (Caco-2 cell monolayer; [10]): 79.3 ± 5.5% | Recovery, AB, only the experimental solutions measured (Caco-2 cell monolayer; [10]): 30.3 ± 6.7% | Recovery, BA, cell lysate included (Caco-2 cell monolayer; [11]): 85 ± 8.5% | Recovery, BA, only the experimental solutions measured (Caco-2 cell monolayer; [11]): 69 ± 5.6% | AB Papp (Caco-2 cell monolayer; apical to basolateral, Caco-2, pH 7.4, 2 h, 37 °C): 3.67 ± 1.37 × 10^−6 cm/s | BA Papp (Caco-2 cell monolayer; basolateral to apical, Caco-2, pH 7.4, 2 h, 37 °C): 7.69 ± 1.39 × 10^−6 cm/s
SMILES: CN1CCC(c2ccccc2CC(C)(C)Nc2nc(N3CCOCC3)nc(-n3c(C(F)F)nc4ccccc43)n2)CC1 [ME-401]
Half-life [5]: 28 h | EC90 plasma concentration, inhibition of basophil activation [6]: 5 ng/mL | pIC50 (PI3Kδ): 9.22 | pIC50 (purified PI3Kδ enzyme): 8.30

Papp at 2 h, 10 uM [7]: > 30 ×10⁻⁶ cm/s
SMILES: CC(C)NCC(O)COc1cccc2ccccc12 (stereo not drawn) [propranolol, reference compound]
